In data set [1] the target is VEGFR2 (Homo sapiens, UniProt P35968). Briefly: VEGFR2 kinase phosphorylation assay in NIH‐3T3 cells. It counts as cell-based. As to conditions: 0.1 mg/mL human serum albumin, data not shown. As to the method:
(§1) TIE‐2, wt KIT, and BRAF^V600E assays were performed by ProQinase (Freiburg, Germany). Cell lines used were Chinese hamster ovary (TIE‐2 assay), human acute megakaryoblastic leukemia cell line (M07e; wt KIT assay), and rat fibroblasts (RAT‐1; BRAF^V600E assay). VEGFR2 assays were performed in murine fibroblasts (NIH‐3T3) in the presence of 0.1 mg/mL human serum albumin. KIT^K642E assays were performed in a GIST cell line (GIST882) in the presence of 0.1 mg/mL BSA. Substrate phosphorylation was determined from total cell lysates by enzyme‐linked immunosorbent assay. In addition, an FGFR phosphorylation assay was performed using a human gastric carcinoma cell line (SNU‐16), with pFGFR assessed by western blot. The PDGFRA phosphorylation assay was performed by DiscoverRx using the DiscoverRx PathHunter cell line, modified to express PDGFRA. […] The assay signal was generated using a detection reagent cocktail and measured by chemoluminescence 13. Both the PDGFRA and FGFR assays were performed in the presence of 0.1 mg/mL BSA.

Data set [2] addresses BRAF^V600E (Homo sapiens, UniProt P15056, V600E). Briefly: KINOMEscan active-site competitive binding assay.
The target in data set [3] is KIT (Homo sapiens, UniProt P10721). Nature of the data set: KINOMEscan active-site competitive binding assay. On the set-up: purchased DiscoveRx (KINOMEscan service). As to conditions: slash = two separate measurements.
KIT, sequence (P10721 26-976): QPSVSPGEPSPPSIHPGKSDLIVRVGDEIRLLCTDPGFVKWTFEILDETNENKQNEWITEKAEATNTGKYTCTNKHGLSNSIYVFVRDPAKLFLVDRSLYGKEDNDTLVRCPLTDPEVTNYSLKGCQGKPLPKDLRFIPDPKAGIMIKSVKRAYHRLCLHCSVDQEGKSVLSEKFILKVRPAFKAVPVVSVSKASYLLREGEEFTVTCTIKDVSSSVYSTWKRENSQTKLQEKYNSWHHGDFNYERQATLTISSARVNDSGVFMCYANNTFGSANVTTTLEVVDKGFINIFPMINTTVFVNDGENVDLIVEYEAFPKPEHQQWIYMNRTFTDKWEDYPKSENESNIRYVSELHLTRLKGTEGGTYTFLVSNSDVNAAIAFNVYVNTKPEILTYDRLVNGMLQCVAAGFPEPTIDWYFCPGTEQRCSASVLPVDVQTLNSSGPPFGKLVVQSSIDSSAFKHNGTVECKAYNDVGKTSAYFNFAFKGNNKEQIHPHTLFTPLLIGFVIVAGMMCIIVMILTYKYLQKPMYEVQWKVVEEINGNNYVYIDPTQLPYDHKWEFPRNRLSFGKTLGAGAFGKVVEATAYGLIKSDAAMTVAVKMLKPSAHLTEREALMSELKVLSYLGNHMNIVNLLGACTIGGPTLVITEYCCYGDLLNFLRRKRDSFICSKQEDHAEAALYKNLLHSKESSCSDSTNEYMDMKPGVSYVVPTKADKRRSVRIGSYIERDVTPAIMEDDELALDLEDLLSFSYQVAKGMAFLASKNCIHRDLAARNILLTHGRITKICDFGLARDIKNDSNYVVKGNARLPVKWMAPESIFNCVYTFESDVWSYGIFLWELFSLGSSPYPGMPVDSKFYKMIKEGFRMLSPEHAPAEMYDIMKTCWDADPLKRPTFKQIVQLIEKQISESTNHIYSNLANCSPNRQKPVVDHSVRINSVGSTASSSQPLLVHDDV
Data set [4] addresses T1, FLT3^N841I (Homo sapiens, UniProt P36888, N841I).
T1 construct: purchased DiscoveRx
Briefly: KINOMEscan active-site competitive binding assay.

In data set [5] the target is T2, RET (Homo sapiens, UniProt P07949).
T2 construct: purchased DiscoveRx
Nature of the data set: KINOMEscan active-site competitive binding assay. As to conditions: slash = two separate measurements.

The target of data set [6] is T3, FRK (Homo sapiens, UniProt P42685).
T3 construct: purchased DiscoveRx (KINOMEscan service)
T3 sequence (P42685 whole entry): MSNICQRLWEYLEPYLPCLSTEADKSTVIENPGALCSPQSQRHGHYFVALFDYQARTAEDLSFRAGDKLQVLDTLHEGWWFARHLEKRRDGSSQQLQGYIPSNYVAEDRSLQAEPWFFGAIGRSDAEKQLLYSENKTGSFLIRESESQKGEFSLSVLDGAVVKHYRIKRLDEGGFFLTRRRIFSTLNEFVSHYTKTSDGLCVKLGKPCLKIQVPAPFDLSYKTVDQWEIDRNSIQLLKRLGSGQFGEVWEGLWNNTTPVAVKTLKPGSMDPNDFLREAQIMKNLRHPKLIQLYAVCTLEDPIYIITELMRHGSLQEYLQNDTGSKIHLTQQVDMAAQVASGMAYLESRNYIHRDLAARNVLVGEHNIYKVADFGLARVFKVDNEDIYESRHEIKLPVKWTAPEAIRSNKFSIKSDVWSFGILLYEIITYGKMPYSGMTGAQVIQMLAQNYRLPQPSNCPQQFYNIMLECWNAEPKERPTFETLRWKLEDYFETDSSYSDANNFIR
Nature of the data set: KINOMEscan active-site competitive binding assay. As to conditions: slash = two separate measurements.

Data set [7] has as its target T4, FGFR2 (Homo sapiens, UniProt P21802).
T4 construct: FGFR2, but not FGFR1, is overexpressed in the SNU‐16 cell line; endogenous in cells
Nature of the data set: FGFR phosphorylation assay in SNU‐16 cells (western blot). It counts as cell-based. As to conditions: SNU‐16/FGFR2 cells, 0.1% bovine serum albumin, read-out: Mean ± SD IC50. As to the method: as §1, with “VEGFR2” for “TIE‐2, wt KIT, and BRAF^V600E assays were performed by ProQinase (Freiburg, Germany). Cell lines used were Chinese hamster ovary (TIE‐2 assay), human acute megakaryoblastic leukemia cell line (M07e; wt KIT assay), and rat fibroblasts (RAT‐1; BRAF^V600E assay). VEGFR2”, “KIT^K642E assays were performed in a GIST cell line (GIST882) in the presence of 0.1 mg/mL BSA.” left out

Data set [8] addresses T5, FLT4 (Homo sapiens, UniProt P35916).
T5 construct: purchased DiscoveRx (KINOMEscan service)
Briefly: KINOMEscan active-site competitive binding assay. As to conditions: slash = two separate measurements.

The target in data set [9] is T6, FLT1 (Homo sapiens, UniProt P17948).
T6 construct: purchased DiscoveRx (KINOMEscan service)
T6 sequence (P17948 27-1338): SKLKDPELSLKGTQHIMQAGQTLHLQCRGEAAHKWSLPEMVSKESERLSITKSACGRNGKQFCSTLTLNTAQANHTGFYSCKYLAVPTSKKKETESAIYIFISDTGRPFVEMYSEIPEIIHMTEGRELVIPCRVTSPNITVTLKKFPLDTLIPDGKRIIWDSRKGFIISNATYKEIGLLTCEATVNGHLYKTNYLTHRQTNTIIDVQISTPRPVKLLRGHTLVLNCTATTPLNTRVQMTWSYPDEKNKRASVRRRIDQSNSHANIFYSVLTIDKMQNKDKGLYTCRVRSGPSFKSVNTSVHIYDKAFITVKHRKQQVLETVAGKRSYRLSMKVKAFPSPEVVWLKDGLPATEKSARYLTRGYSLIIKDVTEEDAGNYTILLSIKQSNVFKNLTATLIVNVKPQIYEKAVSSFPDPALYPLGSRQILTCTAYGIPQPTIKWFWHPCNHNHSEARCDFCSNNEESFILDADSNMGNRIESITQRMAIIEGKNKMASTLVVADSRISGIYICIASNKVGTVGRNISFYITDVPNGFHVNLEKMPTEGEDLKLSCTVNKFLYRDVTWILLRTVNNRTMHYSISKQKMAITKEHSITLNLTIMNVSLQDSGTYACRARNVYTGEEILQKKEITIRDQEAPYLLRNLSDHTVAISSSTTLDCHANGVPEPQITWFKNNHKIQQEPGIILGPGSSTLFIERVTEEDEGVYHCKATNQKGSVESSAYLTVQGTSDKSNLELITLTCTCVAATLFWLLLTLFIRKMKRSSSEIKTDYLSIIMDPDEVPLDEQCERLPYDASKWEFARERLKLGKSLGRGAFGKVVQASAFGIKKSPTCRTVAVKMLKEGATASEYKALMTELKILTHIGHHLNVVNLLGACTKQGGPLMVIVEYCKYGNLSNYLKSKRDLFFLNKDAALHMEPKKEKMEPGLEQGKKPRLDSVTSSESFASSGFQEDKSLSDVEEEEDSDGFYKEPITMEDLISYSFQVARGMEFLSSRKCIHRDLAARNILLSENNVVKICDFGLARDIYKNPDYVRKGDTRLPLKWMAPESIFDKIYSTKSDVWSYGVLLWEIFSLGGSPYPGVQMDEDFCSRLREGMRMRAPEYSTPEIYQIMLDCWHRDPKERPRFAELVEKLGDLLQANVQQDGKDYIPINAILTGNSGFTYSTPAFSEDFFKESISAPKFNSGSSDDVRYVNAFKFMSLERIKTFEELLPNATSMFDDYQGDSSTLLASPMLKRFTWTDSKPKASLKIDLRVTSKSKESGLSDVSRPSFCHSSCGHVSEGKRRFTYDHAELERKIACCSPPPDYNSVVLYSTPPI
Briefly: KINOMEscan active-site competitive binding assay. As to conditions: slash = two separate measurements.

The target of data set [10] is T7, TNNI3K (Homo sapiens, UniProt Q59H18).
T7 construct: purchased DiscoveRx
T7 sequence (Q59H18 1-835): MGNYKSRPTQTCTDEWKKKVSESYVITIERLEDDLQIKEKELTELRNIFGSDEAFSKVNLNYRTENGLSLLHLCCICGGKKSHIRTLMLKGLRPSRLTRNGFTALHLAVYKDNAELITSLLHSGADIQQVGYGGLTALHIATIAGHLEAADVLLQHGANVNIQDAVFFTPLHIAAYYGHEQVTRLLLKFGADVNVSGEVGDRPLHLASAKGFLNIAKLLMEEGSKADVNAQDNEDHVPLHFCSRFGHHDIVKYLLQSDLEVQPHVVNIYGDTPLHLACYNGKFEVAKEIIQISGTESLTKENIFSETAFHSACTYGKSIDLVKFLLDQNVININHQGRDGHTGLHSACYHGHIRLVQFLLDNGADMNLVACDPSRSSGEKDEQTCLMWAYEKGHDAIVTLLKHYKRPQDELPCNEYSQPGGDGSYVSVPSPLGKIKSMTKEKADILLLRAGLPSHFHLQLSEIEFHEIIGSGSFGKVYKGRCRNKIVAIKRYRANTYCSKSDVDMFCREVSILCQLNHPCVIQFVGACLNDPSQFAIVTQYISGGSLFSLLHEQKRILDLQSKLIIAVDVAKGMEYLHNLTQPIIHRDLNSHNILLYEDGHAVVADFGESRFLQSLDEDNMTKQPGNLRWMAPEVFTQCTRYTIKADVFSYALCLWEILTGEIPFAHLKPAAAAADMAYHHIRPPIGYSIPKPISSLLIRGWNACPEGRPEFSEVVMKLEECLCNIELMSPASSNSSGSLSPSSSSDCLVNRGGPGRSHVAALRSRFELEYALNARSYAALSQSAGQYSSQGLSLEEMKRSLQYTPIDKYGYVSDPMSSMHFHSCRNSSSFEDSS
Nature of the data set: KINOMEscan active-site competitive binding assay. As to conditions: slash = two separate measurements.

Data set [11] can be described thus: Plasma pharmacokinetics in female NMRI Foxn1 nu/nu mice. As to conditions: for Calculated maximum free drug concentration: murine plasma. As to the method:
Analyte concentrations were measured by high‐performance liquid chromatography using a Hewlett Packard 1100 Series system (Palo Alto, CA), with tandem mass spectrometric detection using an Applied Biosystems API 4000 (Thermo Fisher Scientific, Waltham, MA). The assay was validated according to the applicable guideline on method validation 11. The lower limit of quantitation for the assay was 2.00 μg/L, with a linear range of 2.00–20,000 μg/L using a sample volume of 100 μL.
Pharmacokinetic studies were performed in female NMRI Foxn1 nu/nu mice, supplied by Harlan‐Winkelmann GmbH (Borchen, Germany). […] Pharmacokinetic parameters, namely the AUC(0–24)ss and C max, were calculated from plasma concentrations using a noncompartmental analysis.

Data set [12] deals with T8, KIT^D816V (Homo sapiens, UniProt P10721, D816V).
T8 construct: purchased DiscoveRx
T8 sequence (P10721 26-976 D816V): as the sequence (P10721 26-976) above, with D791V counted along it
Briefly: KINOMEscan active-site competitive binding assay.

[13] abbreviates: M‐2‐treated mice, 10 mg/kg/day oral for 5 days.
The mark [14] stands for this setting: after M‐2 10 mg/kg/day oral for 5 days, total = sum of molar concentrations of regorafenib, M‐2, M‐5.
Setting [15] is: after regorafenib 10 mg/kg/day oral for 5 days, total = sum of molar concentrations of regorafenib, M‐2, M‐5.
[16] abbreviates: after the labelled (administered) compound, 10 mg/kg/day oral for 5 days.
Where [17] appears, read: analyte in plasma after M‐2 10 mg/kg/day oral for 5 days.
[18] abbreviates: analyte in plasma after M‐2 10 mg/kg/day oral for 5 days, AUC(0–24)ss.
The mark [19] stands for this setting: analyte in plasma after regorafenib 10 mg/kg/day oral for 5 days.
Where [20] appears, read: analyte in plasma after regorafenib 10 mg/kg/day oral for 5 days, AUC(0–24)ss.
Where [21] appears, read: regorafenib‐treated mice, 10 mg/kg/day oral for 5 days.
The mark [22] stands for this setting: analyte in plasma after M‐5 10 mg/kg/day oral for 5 days.

Structures are written as SMILES. Several values for one entry are separate records, joined by “and”; a condition that tells them apart may be missing. Identical values can stand only once.

VEGFR2, sequence (P35968 20-1356): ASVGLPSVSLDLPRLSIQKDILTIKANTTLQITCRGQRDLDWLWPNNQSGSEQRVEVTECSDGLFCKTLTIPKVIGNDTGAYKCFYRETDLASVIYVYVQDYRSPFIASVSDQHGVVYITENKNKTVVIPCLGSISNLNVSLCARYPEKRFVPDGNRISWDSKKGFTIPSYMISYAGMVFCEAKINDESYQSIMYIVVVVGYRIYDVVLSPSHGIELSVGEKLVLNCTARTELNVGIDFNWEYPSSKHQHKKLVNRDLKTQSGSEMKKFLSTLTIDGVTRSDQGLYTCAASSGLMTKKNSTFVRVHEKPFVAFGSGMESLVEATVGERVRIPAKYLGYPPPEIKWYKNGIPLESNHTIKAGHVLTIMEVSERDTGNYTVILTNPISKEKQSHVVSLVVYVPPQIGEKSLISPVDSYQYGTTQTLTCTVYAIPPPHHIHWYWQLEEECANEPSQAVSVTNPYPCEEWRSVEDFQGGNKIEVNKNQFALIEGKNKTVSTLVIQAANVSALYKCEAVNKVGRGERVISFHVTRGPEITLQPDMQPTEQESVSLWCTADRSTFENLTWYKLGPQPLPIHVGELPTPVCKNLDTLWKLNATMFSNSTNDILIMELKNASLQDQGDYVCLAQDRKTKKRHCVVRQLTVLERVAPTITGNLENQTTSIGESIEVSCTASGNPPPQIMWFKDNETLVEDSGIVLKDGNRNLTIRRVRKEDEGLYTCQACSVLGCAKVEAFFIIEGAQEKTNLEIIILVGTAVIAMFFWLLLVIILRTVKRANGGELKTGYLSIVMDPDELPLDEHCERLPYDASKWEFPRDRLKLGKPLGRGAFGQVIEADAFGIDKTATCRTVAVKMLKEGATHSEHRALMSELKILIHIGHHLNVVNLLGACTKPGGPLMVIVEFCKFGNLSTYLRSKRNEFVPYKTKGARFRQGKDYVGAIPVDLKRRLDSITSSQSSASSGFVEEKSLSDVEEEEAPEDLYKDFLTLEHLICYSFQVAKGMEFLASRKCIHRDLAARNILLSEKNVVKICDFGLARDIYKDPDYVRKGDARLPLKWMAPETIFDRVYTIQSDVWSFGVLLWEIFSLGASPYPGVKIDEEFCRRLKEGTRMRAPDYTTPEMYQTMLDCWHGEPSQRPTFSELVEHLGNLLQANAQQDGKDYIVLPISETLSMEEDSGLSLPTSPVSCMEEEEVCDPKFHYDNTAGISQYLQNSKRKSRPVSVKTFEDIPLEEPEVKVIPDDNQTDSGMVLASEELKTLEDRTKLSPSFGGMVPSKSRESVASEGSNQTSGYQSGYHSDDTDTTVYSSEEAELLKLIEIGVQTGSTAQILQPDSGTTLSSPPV
T4 sequence (P21802 22-822 isoform P21802-3 limits assumed): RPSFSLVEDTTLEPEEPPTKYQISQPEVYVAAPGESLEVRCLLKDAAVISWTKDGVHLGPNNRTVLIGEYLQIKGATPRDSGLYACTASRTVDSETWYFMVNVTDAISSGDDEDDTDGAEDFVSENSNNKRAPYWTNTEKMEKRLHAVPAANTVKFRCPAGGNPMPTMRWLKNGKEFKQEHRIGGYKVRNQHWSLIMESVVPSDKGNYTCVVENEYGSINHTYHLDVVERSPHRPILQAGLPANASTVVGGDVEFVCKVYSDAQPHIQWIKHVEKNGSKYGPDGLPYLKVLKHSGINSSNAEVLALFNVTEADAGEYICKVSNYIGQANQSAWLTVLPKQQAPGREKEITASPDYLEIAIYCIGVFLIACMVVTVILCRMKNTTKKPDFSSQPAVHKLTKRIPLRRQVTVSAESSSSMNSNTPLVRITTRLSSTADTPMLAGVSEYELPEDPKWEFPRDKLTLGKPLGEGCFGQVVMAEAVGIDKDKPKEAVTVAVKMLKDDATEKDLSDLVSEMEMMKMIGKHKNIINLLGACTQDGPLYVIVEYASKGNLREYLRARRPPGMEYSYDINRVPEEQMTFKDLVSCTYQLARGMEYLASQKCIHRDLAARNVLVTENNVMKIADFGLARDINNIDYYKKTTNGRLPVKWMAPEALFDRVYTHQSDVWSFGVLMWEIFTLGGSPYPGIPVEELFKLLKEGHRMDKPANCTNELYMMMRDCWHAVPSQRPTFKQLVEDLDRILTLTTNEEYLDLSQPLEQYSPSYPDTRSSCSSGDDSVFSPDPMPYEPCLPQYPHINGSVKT

In general, Kd refers to the constant that tells how readily two partners part at equilibrium. A lower Kd goes with higher affinity. Broadly, the IC50 is the concentration at which inhibition is half-maximal. One may read the AUC as concentration integrated over time. Higher therefore signals high exposure. The Cmax is the maximum level reached in the sampled fluid or tissue. Turning to `CNC(=O)c1cc(Oc2ccc(NC(=O)Nc3ccc(Cl)c(C(F)(F)F)c3)c(F)c2)cc[n+]1[O-]` [M‐2], the “Inhibition of VEGFR2 activity, potency relative to regorafenib” value in [1] is given as “higher potency than regorafenib”. Besides, the Kd stood at 15 nM in data set [2]; 9.8 nM in [3]; 34 nM in [4]; 7.6 nM in data set [5]; 42 nM in data set [6]; 46 nM in data set [8]. Besides, the results for the dissociation constant Kd in [9], in data set [10] and in data set [12] were 23 nM, 160 nM and 300 nM, respectively. Moreover, the IC50 in data set [7] is approximately 200 nM. Further, the “Share of total exposure (sum of total AUC(0–24)ss)” value in [11] (setting [13]) amounted to 78%; in data set [11] (setting [21]), 16%. Besides, the “AUC (% of total)” value worked out at 78% in [11] (setting [14]) and 16% in data set [11] (setting [15]). Besides, in [11] (setting [16]), the “Overall total C max for all three compounds” value is “about 7500 μg/L”. For the same compound, the “Sum of the total AUC(0–24)ss of regorafenib, M‐2 and M‐5” value in [11] (setting [16]) is listed as 67,093 μg × h/L. Also, the AUC in data set [11] (setting [17]) is 104.4 µmol·h/L; in data set [11] (setting [18]), 52,101 μg × h/L; in [11] (setting [19]), 15.0 µmol·h/L; in data set [11] (setting [20]), 7490 µg·h/L. The C max in [11] (setting [17]) was 6150 µg/L; in data set [11] (setting [19]) it was 753 µg/L. The results for the Cmax in [11] (setting [17]) and in data set [11] (setting [19]) were 12300 nM and 1500 nM, respectively. Also, the “Calculated maximum free drug concentration” value in data set [11] was 13.4 nmol/L.

Take `CNC(=O)c1cc(Oc2ccc(NC(=O)Nc3ccc(Cl)c(C(F)(F)F)c3)c(F)c2)ccn1` [Regorafenib, reference compound]: the equilibrium dissociation constant (Kd) in [6] is 69 nM and 42 nM; in data set [10] it was 170 nM and 110 nM.

In the case of `NC(=O)c1cc(Oc2ccc(NC(=O)Nc3ccc(Cl)c(C(F)(F)F)c3)c(F)c2)cc[n+]1[O-]` [M‐5], the “Inhibition of VEGFR2 activity, potency relative to regorafenib” value in data set [1] was “higher potency than regorafenib”. For the same compound, the dissociation constant (Kd) in [2] stood at 11 nM; in [3] it was 5.8 nM; in data set [4], 23 nM; in data set [5], 5.8 nM; in data set [6], 24 nM; in [8], 40 nM. Besides, the Kd in data set [9] stood at 17 nM; in [10] it was 77 nM; in [12], 310 nM. The IC50 in data set [7] was approximately 1000 nM. For the same compound, the entries for the “Share of total exposure (sum of total AUC(0–24)ss)” value in data set [11] (setting [13]) and in [11] (setting [21]) were 5% and 2%, respectively. Moreover, the “AUC (% of total)” value in data set [11] (setting [14]) was determined as 5%; in data set [11] (after M‐5 10 mg/kg/day oral for 5 days, only M‐5 determined), 100%; in [11] (setting [15]) it was 2%. Further, the AUC in data set [11] (setting [17]) was 7.0 µmol·h/L; in data set [11] (setting [18]), 3391 µg·h/L; in data set [11] (setting [22]), 108.9 µmol·h/L; in [11] (analyte in plasma after M‐5 10 mg/kg/day oral for 5 days, AUC(0–24)ss) it was 52,796 μg × h/L; in data set [11] (setting [19]) it was 1.6 µmol·h/L; in [11] (setting [20]), 772 µg·h/L. For the same compound, the results for the C max in [11] (setting [17]) and in data set [11] (setting [19]) were 342 µg/L and 63 µg/L, respectively. Also, the highest concentration (Cmax) in data set [11] (setting [17]) came to 700 nM; in data set [11] (setting [22]), 10900 nM; in [11] (setting [19]), 100 nM. In addition, the “Calculated maximum free drug concentration” value in data set [11] is 0.5 nmol/L.

The record behind these values is paper PMC5119973 (Cancer Medicine, 2016).
